Converted amounts (≈) assume the structure as drawn. Where two headings read alike, the source gives them in different places. *1 amine or outer side, *2 acyl side, *3 side chain or, on linkers, in order; H or OH if unused. Where a SMILES comes first, the peptide text is derived from it. Bridges are numbered along the chain shown (N, C = ends). [ ]: non-standard residue; d: D form. The star is where a group is joined. Dodecyloxycarbonyl = CCCCCCCCCCCCOC(=O)*; CH2C≡CC≡CCH2 = C(C#CC[*:2])#CC[*:1]; NMePra = C#CC[C@H](NC)C(=O)O; X1 = CCCCCCCCCCCCCCCCOC(=O)*; NMeS = CN[C@@H](CO)C(=O)O; Dab = NCC[C@H](N)C(=O)O; Propargyl = C#CC*
Legend:
[1] = tested on: S. epidermidis RP26a; format: cell-based; details: 24 h
Protocol: (§1) Minimum Inhibitory Concentration Assay
(§2) MICs were performed in accordance with the broth microdilution protocol from the Clinical and Standards Laboratory Institute.3 Alkynomycins were dissolved at 10 mg/mL in DMSO and two-fold serial dilutions were made across a 96-well plate containing Muller-Hinton (MH) broth. One plate was used for each indicator organism, and each well reached a final inoculum of 5×10^5 colony forming units per mL. Using OD600 readings normalized to a negative control, MICs were recorded as the lowest concentration at which growth was inhibited after a 24 hr incubation at 37 C. Controls were included on each plate to ensure peptide and media sterility. MICs are reported in Table 2 and Tables S4, S5 as an average of at least three independent trials.
(§3) Indicator organisms were stored at -80 C as glycerol stocks. Each organism was streaked onto tryptic soy agar and grown for 24 hr at 37 C. Single colonies were picked and used to inoculate MH broth. Bacteria culture was diluted to reach an OD600 of 0.015 prior to being used for MIC assays. […]

[2] = tested on: MRSA USA 300; format: cell-based; details: USA 300, 24 h
Protocol: as §1, §2, §3

[3] = tested on: E. coli BAS901 (permeabilized); format: cell-based; details: CLSI broth microdilution, Muller-Hinton broth, 5×10^5 CFU/mL, 24 hr at 37 C, OD600, performed in triplicate
Protocol: as §1, §2, §3

[4] = tested on: E. coli MG1655; format: cell-based; details: MG1655, 24 h
Protocol: as §1, §2, §3

[5] = tested on: S. epidermidis RP26a; parameters: method as in 2 sources, ref 38 = [38]; PMID 21095572; doi:10.1016/j.chembiol.2010.09.009; Smith P. A.; Roberts T. C.; Romesberg F. E. Broad-spectrum antibiotic activity of the arylomycin natural products is masked by natural target mutations . Chem. Biol. 2010 , 17 ( 11 ), 1223 – 1231 . ||| ref 38 (a number printed in a supplementary file, which may have a reference list of its own: not looked up in the article's list); details: previously reported value provided for reference; cited from earlier work
[6] = tested on: MRSA USA 300; details: previously reported value provided for reference; cited from earlier work
From the text: Table 2 Minimum Inhibitory Concentration of Alkynomycins against Gram-Positive and Gram-Negative Bacteria ^a | column: MRSA

[7] = tested on: E. coli MG1655; parameters: method as in 2 sources, ref 38 = [38]; PMID 21095572; doi:10.1016/j.chembiol.2010.09.009; Smith P. A.; Roberts T. C.; Romesberg F. E. Broad-spectrum antibiotic activity of the arylomycin natural products is masked by natural target mutations . Chem. Biol. 2010 , 17 ( 11 ), 1223 – 1231 . ||| ref 38 (a number printed in a supplementary file, which may have a reference list of its own: not looked up in the article's list); details: previously reported value provided for reference; cited from earlier work
[8] = tested on: E. coli BAS901 (permeabilized); details: previously reported value provided for reference; cited from earlier work

Molecule	MIC S. epidermidis [1] [µg/mL]	MIC MRSA [2] [µg/mL]	MIC E. coli Δ [3] [µg/mL]	MIC E. coli [4] [µg/mL]	MIC S. epidermidis [5] [µg/mL]	MIC MRSA [6] [µg/mL]	MIC E. coli [7] [µg/mL]	MIC E. coli Δ [8] [µg/mL]
CCCCCCCCCCCCOC(=O)N[C@@H](CCN)C(=O)N(C)[C@H]1CC#CC#CC[C@@H](C(N)=O)NC(=O)[C@H](C)NC1=O [Compound 10]	4 (≈ 6.64 µM)	16 (≈ 26.5 µM)	4 (≈ 6.64 µM)	–	–	–	–	–
CCCCCCCCCCCCCCCCOC(=O)N[C@@H](CCN)C(=O)N(C)[C@H]1CC#CC#CC[C@@H](C(N)=O)NC(=O)[C@H](C)NC1=O [Compound 11]	4 (≈ 6.07 µM)	8 (≈ 12.1 µM)	4 (≈ 6.07 µM)	> 64	–	–	–	–
CCCCCCCCCCCCOC(=O)N[C@@H](CCN)C(=O)N(C)[C@@H]1CC#CC#CC[C@H](C(N)=O)NC(=O)[C@H](C)NC1=O [Compound 12]	16 (≈ 26.5 µM)	–	16 (≈ 26.5 µM)	> 64	–	–	–	–
CCCCCCCCCCCCCCCCOC(=O)N[C@@H](CCN)C(=O)N(C)[C@@H]1CC#CC#CC[C@H](C(N)=O)NC(=O)[C@H](C)NC1=O [Compound 13]	16 (≈ 24.3 µM)	–	32 (≈ 48.6 µM)	> 64	–	–	–	–
CCCCCCCCCCCCOC(=O)N[C@@H](CCN)C(=O)N(C)[C@H]1CC#CC#CCOC[C@@H](C(N)=O)NC(=O)[C@H](C)NC1=O [Compound 14]	16 (≈ 25.3 µM)	16 (≈ 25.3 µM)	16 (≈ 25.3 µM)	> 64	–	–	–	–
CCCCCCCCCCCCCCCCOC(=O)N[C@@H](CCN)C(=O)N(C)[C@H]1CC#CC#CCOC[C@@H](C(N)=O)NC(=O)[C@H](C)NC1=O [Compound 15]	32 (≈ 46.5 µM)	16 (≈ 23.2 µM)	16 (≈ 23.2 µM)	> 64	–	–	–	–
CCCCCCCCCCCCOC(=O)N[C@@H](CCN)C(=O)N(C)[C@H]1CC#CC#CC[C@H](C(N)=O)NC(=O)[C@H](C)NC1=O [Compound S1]	> 64	–	> 64	> 64	–	–	–	–
CCCCCCCCCCCCCCCCOC(=O)N[C@@H](CCN)C(=O)N(C)[C@H]1CC#CC#CC[C@H](C(N)=O)NC(=O)[C@H](C)NC1=O [Compound S2]	> 64	–	> 64	> 64	–	–	–	–
CCCCCCCCCCCCOC(=O)N[C@@H](CCN)C(=O)N(C)[C@H]1COCC#CC#CC[C@@H](C(N)=O)NC(=O)[C@H](C)NC1=O [Compound S3]	> 64	–	> 64	> 64	–	–	–	–
CCCCCCCCCCCCCCCCOC(=O)N[C@@H](CCN)C(=O)N(C)[C@H]1COCC#CC#CC[C@@H](C(N)=O)NC(=O)[C@H](C)NC1=O [Compound S4]	64 (≈ 92.9 µM)	–	64 (≈ 92.9 µM)	> 64	–	–	–	–
CCCCCCCCCCCCOC(=O)N[C@@H](CCN)C(=O)N(C)[C@H]1COCC#CC#CC[C@H](C(N)=O)NC(=O)[C@H](C)NC1=O [Compound S5]	> 64	–	> 64	> 64	–	–	–	–
CCCCCCCCCCCCCCCCOC(=O)N[C@@H](CCN)C(=O)N(C)[C@H]1COCC#CC#CC[C@H](C(N)=O)NC(=O)[C@H](C)NC1=O [Compound S6]	64 (≈ 92.9 µM)	–	64 (≈ 92.9 µM)	> 64	–	–	–	–
CCCCCCCCCCCCOC(=O)N[C@@H](CCN)C(=O)N(C)[C@H]1COCC#CC#CCOC[C@@H](C(N)=O)NC(=O)[C@H](C)NC1=O [Compound S7] (Dodecyloxycarbonyl-[Dab][NMeS]AS-NH2; linker 2-4 via CH2C≡CC≡CCH2)	> 64	–	> 64	> 64	–	–	–	–
CCCCCCCCCCCCCCCCOC(=O)N[C@@H](CCN)C(=O)N(C)[C@H]1COCC#CC#CCOC[C@@H](C(N)=O)NC(=O)[C@H](C)NC1=O [Compound S8] (X1-[Dab][NMeS]AS-NH2; linker 2-4 via CH2C≡CC≡CCH2)	64 (≈ 89 µM)	–	64 (≈ 89 µM)	> 64	–	–	–	–
CCCCCCCCCCCCOC(=O)N[C@@H](CCN)C(=O)N[C@H]1CC#CC#CC[C@@H](C(N)=O)NC(=O)[C@H](C)NC1=O [Compound S9]	> 64	–	> 64	> 64	–	–	–	–
C#CCOC[C@H](NC(=O)[C@H](C)NC(=O)[C@H](CC#C)N(C)C(=O)[C@H](CCN)NC(=O)OCCCCCCCCCCCC)C(N)=O [Compound S10] (Dodecyloxycarbonyl-[Dab][NMePra]AS(Propargyl)-NH2)	> 64	–	–	> 64	–	–	–	–
Arylomycin A-C16	–	–	–	–	0.5	32	> 64	8

Reference: paper PMC10141592, “Stretching Peptides to Generate Small Molecule β-Strand Mimics” (ACS Central Science, 2023)
